The results in this text go back to EPA's ToxValDB 9.5 (doi:10.2903/j.efsa.2012.2522).

Data set [1] deals with Oryctolagus sp.
Data set [2] has as its system Cyprinus carpio. To be noted: acute; duration: 96 hours; mortality.
In data set [3] the test system is Colinus virginianus.
Data set [4] relates to Tagia sp.
Data set [5] has as its system Anas platyrhynchos.
Data set [6] has as its system Daphnia magna. To be noted: chronic/long-term; duration: 21 days; reproduction.
In data set [7] the test system is Rattus norvegicus.
Data set [8] has as its system Folsomia candida. The note with it: chronic/long-term.
Data set [9] deals with Apis mellifera. To be noted: acute, mortality.
Data set [10] has as its system Pimephales promelas. The note with it: chronic/long-term; duration: 33 days; growth.
Data set [11] concerns Bibionidae. The note with it: chronic/long-term; duration: 28 days.
[12] abbreviates: reproduction developmental, body weight.

Converted amounts (≈) assume the structure as drawn.

Consider `O=C(O)c1cn[nH]c1C(F)F` [1H-3-Difluoromethylpyrazole-4-carboxylic acid], for which, in data set [1] (setting [12]), the NOAEL stood at 300 mg/kg-day.
`Cn1cc(C(=O)O)c(C(F)F)n1` [3-(Difluoromethyl)-1-methyl-1H-pyrazole-4-carboxylic acid]: in [1] (reproduction developmental, no effects), the NOAEL came out at 250 mg/kg-day.
For the molecule `Cn1cc(C(=O)Nc2ccccc2-c2cc(F)c(F)c(F)c2)c(C(F)F)n1` [Fluxapyroxad], the LC50 in data set [2] is 0.29 µg/mL (≈ 0.761 µM); in data set [3] (acute, oral, diet, mortality), above 912 mg/kg-day; in data set [4] (acute, mortality) it was above 1000 mg/kg; in data set [5] (short-term, oral, feed, mortality), above 1720 mg/kg-day. Also, the LD50 in data set [3] (acute, oral, mortality) was above 2000 mg/kg-day; in data set [5] (acute, oral, unspecified, mortality), above 2000 mg/kg-day; in data set [7] (acute, oral, mortality), above 2000 mg/kg-day; in [9] (dermal), above 100 µg/piece; in data set [9] (oral, unspecified), above 111 µg/piece. Further, the NOEC is 74.6 mg/kg-day in data set [3] (reproduction developmental); 21.3 mg/kg in data set [4] (chronic/long-term, duration: 56 days); 33.6 mg/kg-day in data set [5] (reproductive); 0.5 mg/L in [6]; 2.99 mg/kg in [8]; 0.0359 mg/L in data set [10]. This molecule also came in with an NOEC in data set [11] of 75.9 mg/L. The NOAEL is 2.1 mg/kg-day in data set [7] (chronic, duration: 2 years, organ weight); 25 mg/kg-day in [7] (setting [12]); 6 mg/kg-day in [7] (subchronic, duration: 90 days, oral, organ weight); 25 mg/kg-day in data set [1] (developmental, development).
